Experimental data: patent publication US11999676B2, “Vesicular monoamine transporter-2 ligands and their use in the treatment of psychostimulant abuse” (priority 2016, dated 2024)
Where two headings read alike, the source gives them in different places.

Assays:
VMAT2 [1] = molecular target: T1, VMAT2 (Rattus norvegicus (Rat), UniProt Q01827); conditions: rat brain synaptic vesicles; read-out: [3H]DTBZ binding (Ki) VMAT2
VMAT2 [2] = molecular target: T1, VMAT2; assay: [3H]Dopamine ([3H]DA) uptake assay, vesicular preparation; type: biochemical
hERG channel = hERG channel (Homo sapiens (Human), UniProt Q12809); assay: [3H]Dofetilide binding assay, HEK-293 cell membrane preparation
Protocol: [^3H]Dofetilide binding assays were conducted using commercially available HEK-293 cell membranes which stably express the hERG channel. Membranes were suspended in assay buffer (50 mM Tris, 10 mM KCl, 1 mM MgCl2, pH 7.4) prior to the experiment. […] Aliquots of the HEK-293 cell membrane suspension which contained 5 μg membrane protein were added to tubes containing assay buffer, 5 nM [^3H]dofetilide and a range of concentrations of analog (10 nM-100 μM). Nonspecific binding was determined in the presence of amitriptyline (1 mM). Samples were incubated for 1 hr. at 24° C., followed by rapid filtration. […] The affinity for the [^3H]dofetilide binding site on the hERG channel expressed in the HEK-293 cellular membrane was determined from the analog concentration response curves.

in vitro [3] = conditions: both, human, microsomes, pH 7.4, Microsomal stability assays: Clearance
[4] = Microsomal stability assay, human liver microsomes; conditions: for half-life at 0.08 µM: both, human, pH 7.4, Microsomal stability assays: Half-life
in vitro [5] = conditions: female, Sprague-Dawley, rat, microsomes, pH 7.4, Microsomal stability assays: Clearance
Protocol: (§1) Each plate holds triplicate samples of two controls (0.4 mM) and up to 14 compounds (0.08 mM) in rat and human liver microsomes. Aliquots of each well of the plate (175 μl of each well) were transferred from the master plate into 5 assay plates. For 0-hr time point, pre-cooled (4° C.) internal standard (437.5 μL, 2 μM caffeine in methanol) was added to the first plate before the reaction starts. NADPH regenerating system solution A (6.05 ml, Fisher Scientific, #NC9255727) was combined with NADPH regenerating system solution B (1.21 ml, Fisher Scientific, #NC9016235) in potassium phosphate buffer (15.8 ml, 0.1 M, pH 7.4, 37° C.). The resulting NADPH solution (43.8 μl) was added to each well of all the 96-well assay plates and mixed with pipette briefly making the final protein and compound concentrations respectively: 0.5 mg/ml, 0.08 μM (0.4 μM for controls). Plates were sealed, and all plates except the 0-hr plate were incubated at 37° C., shaken at a speed of 60 rpm. A single assay plate was tested at each time point: 0.5 hr, 1 hr, 2 hr, and 4 hr. At each time point, 437.5 μL of pre-cooled internal standard was added each well of the plate to quench the reaction. […] 120 μl supernatant was transferred to a 96-well plate, centrifuged again and analyzed by UPLC-MS (Waters Inc., Milford, MA). The compounds and internal standard were detected by selected ion recording (SIR).
(§2) The amount of material was measured as a ratio of peak area to the internal standard and graphed. Using the slope from the initial linear portion of this curve, the degradation rate constant is calculated using equation [1].

[6] = Microsomal stability assay, rat liver microsomes; conditions: female, Sprague-Dawley, rat, pH 7.4, Microsomal stability assays: Half-life
Protocol: as §1, §2

[7] = rat striatal synaptic vesicles, read-out: [3H]DA uptake (Ki) VMAT2
[8] = [3H]dofetilide, HEK-293 cell membranes, read-out: hERG Binding: Mean Ki ± Standard Deviation
[9] = [3H]DA uptake, rat, read-out: VMAT2 (rat) Inhibition: Mean Ki ± Standard Deviation

hERG channel, sequence (Q12809 whole entry): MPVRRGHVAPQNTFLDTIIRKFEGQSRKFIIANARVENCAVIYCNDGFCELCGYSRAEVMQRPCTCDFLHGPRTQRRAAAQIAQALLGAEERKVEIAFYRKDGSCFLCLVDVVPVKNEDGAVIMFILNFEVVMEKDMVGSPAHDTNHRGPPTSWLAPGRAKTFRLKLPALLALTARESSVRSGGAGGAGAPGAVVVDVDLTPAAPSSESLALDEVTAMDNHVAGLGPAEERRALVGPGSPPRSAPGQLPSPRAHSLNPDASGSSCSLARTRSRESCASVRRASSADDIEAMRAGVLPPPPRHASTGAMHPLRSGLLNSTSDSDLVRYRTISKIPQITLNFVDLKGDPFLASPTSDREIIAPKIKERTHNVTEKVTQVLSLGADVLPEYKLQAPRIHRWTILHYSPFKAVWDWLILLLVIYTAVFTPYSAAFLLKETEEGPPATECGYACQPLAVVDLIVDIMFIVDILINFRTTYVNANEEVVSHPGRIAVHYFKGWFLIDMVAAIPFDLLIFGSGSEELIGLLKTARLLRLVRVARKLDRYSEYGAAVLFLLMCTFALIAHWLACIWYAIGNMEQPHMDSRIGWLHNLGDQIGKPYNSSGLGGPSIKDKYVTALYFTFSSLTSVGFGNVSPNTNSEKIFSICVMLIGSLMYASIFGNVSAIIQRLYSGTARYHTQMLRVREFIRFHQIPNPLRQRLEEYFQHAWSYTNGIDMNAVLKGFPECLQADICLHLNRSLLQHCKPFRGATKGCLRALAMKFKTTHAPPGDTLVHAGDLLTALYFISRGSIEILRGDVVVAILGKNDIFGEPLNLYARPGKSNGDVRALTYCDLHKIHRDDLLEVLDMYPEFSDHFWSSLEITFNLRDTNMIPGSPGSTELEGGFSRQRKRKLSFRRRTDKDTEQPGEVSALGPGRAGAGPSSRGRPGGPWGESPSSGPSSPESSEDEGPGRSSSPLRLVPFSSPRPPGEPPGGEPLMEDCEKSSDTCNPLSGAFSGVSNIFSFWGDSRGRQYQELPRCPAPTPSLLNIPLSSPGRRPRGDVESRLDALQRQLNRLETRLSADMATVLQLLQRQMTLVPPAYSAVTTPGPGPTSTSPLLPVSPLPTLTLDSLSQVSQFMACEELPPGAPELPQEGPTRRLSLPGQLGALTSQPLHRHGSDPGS

COc1ccc(CC(C)N(C)CCCc2ccccc2)cc1 (centres unmarked) [Compound 30]
Ki (VMAT2 [1]): 7110 ± 820 nM
Ki (VMAT2 [2]; [7]): 270 ± 38 nM

COc1ccc(CCC(C)NCCc2ccccc2)cc1 (centres unmarked) [Compound 31]
Ki (VMAT2 [1]): 2400 ± 100 nM
Ki (VMAT2 [2]; [7]): 62 ± 29 nM

COc1ccc(CCC(C)NCCCc2ccccc2)cc1 (centres unmarked) [Compound 32]
Ki (VMAT2 [1]): 4700 ± 400 nM
Ki (VMAT2 [2]; [7]): 30 ± 2 nM

COc1ccc(CCNC(C)CCc2ccc(OC)cc2)cc1 (centres unmarked) [Compound 33]
Ki (VMAT2 [1]): 1500 ± 200 nM
Ki (VMAT2 [2]; [7]): 60 ± 7 nM

COc1ccc(CCC(C)NCCc2ccc(Br)cc2)cc1 (centres unmarked) [Compound 34]
Ki (VMAT2 [1]): 870 ± 30 nM
Ki (VMAT2 [2]; [7]): 10 ± 4 nM

CC(Cc1ccc(O)cc1)NCCc1ccccc1 (centres unmarked) [Compound 35]
Ki (VMAT2 [1]): 2600 ± 400 nM
Ki (VMAT2 [2]; [7]): 47 ± 6 nM

COc1ccc(CCCNC(C)Cc2ccc(O)cc2)cc1 (centres unmarked) [Compound 36]
Ki (VMAT2 [1]): 230 ± 60 nM
Ki (VMAT2 [2]; [7]): 72 ± 30 nM

CC(Cc1ccc(O)cc1)NCCCc1ccccc1 (centres unmarked) [Compound 37]
Ki (VMAT2 [1]): 820 ± 270 nM
Ki (VMAT2 [2]; [7]): 33 ± 8 nM

CC(Cc1ccc(F)cc1)NCCc1ccccc1 (centres unmarked) [Compound 38]
Ki (VMAT2 [1]): 2500 ± 1600 nM
Ki (VMAT2 [2]; [7]): 69 ± 9 nM

CC(Cc1ccc(F)cc1)NCCCc1ccccc1 (centres unmarked) [Compound 39]
Ki (VMAT2 [1]): 1300 ± 300 nM
Ki (VMAT2 [2]; [7]): 10 ± 0.2 nM

COc1ccc(CCCNC(C)Cc2ccc(F)cc2)cc1 (centres unmarked) [Compound 40]
Ki (VMAT2 [1]): 1700 ± 400 nM
Ki (VMAT2 [2]; [7]): 17 ± 3 nM

CC(Cc1ccc([N+](=O)[O-])cc1)NCCc1ccccc1 (centres unmarked) [Compound 41]
Ki (VMAT2 [1]): 5100 ± 1200 nM
Ki (VMAT2 [2]; [7]): 60 ± 7 nM

CC(Cc1ccc([N+](=O)[O-])cc1)NCCCc1ccccc1 (centres unmarked) [Compound 42]
Ki (VMAT2 [1]): 2000 ± 300 nM
Ki (VMAT2 [2]; [7]): 13 ± 4 nM

COc1ccc(CCCNC(C)Cc2ccc([N+](=O)[O-])cc2)cc1 (centres unmarked) [Compound 43]
Ki (VMAT2 [1]): 1400 ± 400 nM
Ki (VMAT2 [2]; [7]): 8 ± 2 nM

CC(Cc1ccc(N)cc1)NCCc1ccccc1 (centres unmarked) [Compound 44]
Ki (VMAT2 [1]): 17000 nM
Ki (VMAT2 [2]; [7]): 210 ± 80 nM

CC(Cc1ccc(N)cc1)NCCCc1ccccc1 (centres unmarked) [Compound 45]
Ki (VMAT2 [1]): 2800 ± 700 nM
Ki (VMAT2 [2]; [7]): 36 ± 3 nM

COc1ccc(CC(C)NCCCc2ccccc2)cc1OC (centres unmarked) [Compound 46]
Ki (VMAT2 [1]): 3800 ± 100 nM
Ki (VMAT2 [2]; [7]): 140 ± 13 nM

COc1ccc(CC(C)NCCCCc2ccccc2)cc1OC (centres unmarked) [Compound 47]
Ki (VMAT2 [1]): 1100 ± 100 nM
Ki (VMAT2 [2]; [7]): 29 ± 11 nM

CC(CCc1ccccc1)NCCc1ccccc1 (centres unmarked) [Compound 48]
Ki (VMAT2 [1]): 1600 ± 330 nM
Ki (VMAT2 [2]; [7]): 50 ± 4 nM

CC(CCc1ccccc1)N(C)CCc1ccccc1 (centres unmarked) [Compound 49]
Ki (VMAT2 [1]): 29800 ± 11200 nM
Ki (VMAT2 [2]; [7]): 84 ± 4 nM

CC(CCc1ccccc1)NCCCc1ccccc1 (centres unmarked) [Compound 50]
Ki (VMAT2 [1]): 4810 ± 1130 nM
Ki (VMAT2 [2]; [7]): 50 ± 12 nM

CC(CCc1ccccc1)N(C)CCCc1ccccc1 (centres unmarked) [Compound 51]
Ki (VMAT2 [1]): 17200 ± 6330 nM
Ki (VMAT2 [2]; [7]): 360 ± 34 nM

COc1ccc(CCCNC(C)CCc2ccccc2)cc1 (centres unmarked) [Compound 52]
Ki (VMAT2 [1]): 3200 ± 100 nM
Ki (VMAT2 [2]; [7]): 26 ± 2 nM

COc1ccc(CCCNC(C)CCc2ccc(OC)cc2)cc1 (centres unmarked) [Compound 53]
Ki (VMAT2 [1]): 1500 ± 700 nM
Ki (VMAT2 [2]; [7]): 24 ± 6 nM

FCC(Cc1ccc(-c2cncnc2)cc1)NCCCc1ccc(F)cc1 (centres unmarked) [Compound 68]
Ki (hERG channel; [8]): 633 ± 46.3 nM
CLint scaled at 0.08 µM (in vitro [3]): > 400 mL/min/kg
Ki (VMAT2 [2]; [9]): 5.53 ± 0.567 nM
half-life at 0.08 µM ([4]; pooled liver microsomes): < 6 min

FCC(Cc1ccc(-c2cncnc2)cc1)NCCCc1ccc(F)cc1 (centres unmarked) [Compound 69]
CLint scaled at 0.08 µM (in vitro [5]): 76.8 mL/min/kg
half-life at 0.08 µM ([6]; liver microsomes): 36 min

O=CNc1ccc(CC(CF)NCCCc2ccc(F)cc2)cc1 (centres unmarked) [Compound 72]
Ki (hERG channel; [8]): 516 ± 63.6 nM
CLint scaled at 0.08 µM (in vitro [3]): 26.5 mL/min/kg
Ki (VMAT2 [2]; [9]): 16.4 ± 2.89 nM
half-life at 0.08 µM ([4]; pooled liver microsomes): 48 min

O=CNc1ccc(CC(CF)NCCCc2ccc(F)cc2)cc1 (centres unmarked) [Compound 73]
CLint scaled at 0.08 µM (in vitro [5]): 43.7 mL/min/kg
half-life at 0.08 µM ([6]; liver microsomes): 66 min

CC(Cc1ccc(NC=O)cc1)N(C=O)CCCc1ccccc1 (centres unmarked) [Compound 75]
CLint scaled at 0.08 µM (in vitro [3]): 121 mL/min/kg
Ki (VMAT2 [2]; [9]): 22700 ± 432 nM
half-life at 0.08 µM ([4]; pooled liver microsomes): 12 min

CC(Cc1ccc(NC=O)cc1)N(C=O)CCCc1ccccc1 (centres unmarked) [Compound 76]
CLint scaled at 0.08 µM (in vitro [5]): 56 mL/min/kg
half-life at 0.08 µM ([6]; liver microsomes): 48 min

Nc1ccc(CC(CF)NCCCc2ccc(F)cc2)cc1 (centres unmarked) [Compound 79, [N-3-(4-fluorophenyl)-propan-1-yl]-3-(4-aminophenyl)-1-fluoro-2-propylamine]
Ki (hERG channel; [8]): 3440 ± 983 nM
CLint scaled at 0.08 µM (in vitro [5]): 21.1 mL/min/kg
half-life at 0.08 µM ([6]; liver microsomes): 132 min
Ki (VMAT2 [2]; [9]): 19.8 ± 9.29 nM

Nc1ccc(CC(CF)NCCCc2ccc(F)cc2)cc1 (centres unmarked) [Compound 80, [N-3-(4-fluorophenyl)-propan-1-yl]-3-(4-aminophenyl)-1-fluoro-2-propylamine]
CLint scaled at 0.08 µM (in vitro [3]): 29.5 mL/min/kg
half-life at 0.08 µM ([4]; pooled liver microsomes): 42 min

Fc1ccc(CCCNC(Cc2ccc(F)cc2)C(F)F)cc1 (centres unmarked) [Compound 81]
CLint scaled at 0.08 µM (in vitro [5]): 83.2 mL/min/kg
half-life at 0.08 µM ([6]; liver microsomes): 36 min
Ki (VMAT2 [2]; [9]): 386 ± 194 nM

Fc1ccc(CCCNC(Cc2ccc(F)cc2)C(F)F)cc1 (centres unmarked) [Compound 82]
CLint scaled at 0.08 µM (in vitro [3]): 26.3 mL/min/kg
half-life at 0.08 µM ([4]; pooled liver microsomes): 48 min

FCC(Cc1ccc(-c2cccnc2)cc1)NCCCc1ccc(F)cc1 (centres unmarked) [Compound 83]
Ki (hERG channel; [8]): 6750 ± 3620 nM
CLint scaled at 0.08 µM (in vitro [5]): 113 mL/min/kg
half-life at 0.08 µM ([6]; liver microsomes): 24 min
Ki (VMAT2 [2]; [9]): 27.7 ± 13.9 nM

FCC(Cc1ccc(-c2cccnc2)cc1)NCCCc1ccc(F)cc1 (centres unmarked) [Compound 84]
CLint scaled at 0.08 µM (in vitro [3]): 173 mL/min/kg
Microsomal stability assays: Half-life [4]: 6 min

O=[N+]([O-])c1ccc(CCCNC(CF)Cc2ccc(F)cc2)cc1 (centres unmarked) [Compound 123]
Ki (hERG channel): 223 ± 199 nM
CLint scaled at 0.08 µM (in vitro [3]): 18.1 mL/min/kg
half-life at 0.08 µM ([4]; pooled human liver microsomes): 72 min

O=[N+]([O-])c1ccc(CCCNC(CF)Cc2ccc(F)cc2)cc1 (centres unmarked) [Compound 124]
CLint scaled at 0.08 µM (in vitro [5]): 116 mL/min/kg
half-life at 0.08 µM ([6]; rat liver microsomes): 24 min

OCC(Cc1ccc(F)cc1)NCCCc1ccncc1 (centres unmarked) [Compound 129]
CLint scaled at 0.08 µM (in vitro [3]): < 5.2 mL/min/kg
half-life at 0.08 µM ([4]; pooled liver microsomes): > 240 min

OCC(Cc1ccc(F)cc1)NCCCn1cccn1 (centres unmarked) [Compound 130]
CLint scaled at 0.08 µM (in vitro [3]): 37.3 mL/min/kg
Ki (VMAT2 [2]; [9]): 634 ± 195 nM
half-life at 0.08 µM ([4]; pooled liver microsomes): 36 min

OCC(Cc1ccc(F)cc1)NCCCn1cccn1 (centres unmarked) [Compound 131]
CLint scaled at 0.08 µM (in vitro [5]): 139 mL/min/kg
half-life at 0.08 µM ([6]; liver microsomes): 18 min

FCC(Cc1ccc(F)cc1)NCCCc1ccncc1 (centres unmarked) [Compound 142]
CLint scaled at 0.08 µM (in vitro [5]): 38.3 mL/min/kg
half-life at 0.08 µM ([6]; liver microsomes): 30 min
Ki (VMAT2 [2]; [9]): 117 ± 18.7 nM

FCC(Cc1ccc(F)cc1)NCCCc1ccncc1 (centres unmarked) [Compound 143]
CLint scaled at 0.08 µM (in vitro [3]): 98.1 mL/min/kg
half-life at 0.08 µM ([4]; pooled liver microsomes): 30 min

FCC(Cc1ccc(F)cc1)NCCCc1ccnc2ccccc12 (centres unmarked) [Compound 148]
Ki (hERG channel; [8]): 4700 ± 373 nM
CLint scaled at 0.08 µM (in vitro [5]): > 400 mL/min/kg
half-life at 0.08 µM ([6]; liver microsomes): < 6 min
Ki (VMAT2 [2]; [9]): 70.3 ± 13 nM

FCC(Cc1ccc(F)cc1)NCCCc1ccnc2ccccc12 (centres unmarked) [Compound 149]
CLint scaled at 0.08 µM (in vitro [3]): 162 mL/min/kg
Microsomal stability assays: Half-life [4]: 6 min

OCC(Cc1ccc(F)cc1)NCCCc1ccc(Br)cc1 (centres unmarked) [Compound 154]
CLint scaled at 0.08 µM (in vitro [3]): < 5.2 mL/min/kg
Ki (VMAT2 [2]; [9]): 69.1 ± 13.6 nM
half-life at 0.08 µM ([4]; pooled liver microsomes): > 240 min

OCC(Cc1ccc(F)cc1)NCCCc1ccc(Br)cc1 (centres unmarked) [Compound 155]
CLint scaled at 0.08 µM (in vitro [5]): > 450 mL/min/kg
half-life at 0.08 µM ([6]; liver microsomes): < 6 min
